Laboratory results from PMC5476563, “Structure-Guided Design of C4-alkyl-1,4-dihydro-2H-pyrimido[4,5-d][1,3]oxazin-2-ones as Potent and Mutant-Selective Epidermal Growth Factor Receptor (EGFR) L858R/T790M Inhibitors” (Scientific Reports, 2017).
Where “and” joins values, the source holds several entries; their conditions need not be identical. Equal entries are not always repeated.

Columns and labels:
[1] = tested on: H1975 cells (expressing EGFR^L858R/T790M); experiment: Sulforhodamine B (SRB) cellular antiproliferation assay, H1975; format: cell-based; details: for IC50: Homo sapiens, NCI-H1975, SRB assay, 72 h, mean ± SD, read-out: Cellular Antiproliferative Activity (IC50, nM) H1975; for Cellular Selectivity A431:H1975: ratio IC50 A431 : H1975
Text: (§1) Having explored potent inhibition and obvious selectivity of EGFR kinases by introduction of alkyl groups to C4-position to the 1,4-dihydro-2H-pyrimido[4,5-d][1,3]oxazin-2-one ring, we subsequently evaluated their anti-proliferative activities in H1975 cells (expressing EGFR^L858R/T790M) and A431 cells (expressing EGFR^WT) in vitro by using the sulforhodamine B (SRB) colourimetric assay. The anti-proliferative activities of our designed compounds against H1975 and A431 cell lines range from 135 nM to more than 9 μM and from 554 nM to more than 7 μM, respectively (Fig. 5). Additionally, the selectivity at the cellular level is from 0.7 to 9.4-fold.
(§2) In vitro cellular antiproliferation activities of the designed compounds against H1975 and A431 cell lines were examined by using the well-established sulforhodamine B (SRB) colorimetric assay. The detailed experiment was performed according to the published literature. Briefly, H1975 and A431 cells were seeded in 96-well plates, and allowed to adhere overnight followed by treated with gradient concentrations of the test compounds for 72 h. […] The IC50 values were obtained by using the Logit method and reported as the mean ± SD from three independent determinations.

[2] = tested on: A431 cells (expressing EGFR^WT); experiment: Sulforhodamine B (SRB) cellular antiproliferation assay, A431; format: cell-based; details: Homo sapiens, A-431, 72 h, mean ± SD, read-out: Cellular Antiproliferative Activity (IC50, nM) A431
Text: as §1, §2

[3] = molecular target: T1, EGFR^WT (Homo sapiens, UniProt P00533); experiment: ELISA-based EGFR-TK enzymatic activity assay (WT); format: biochemical; details: mean ± SD, at least three determinations, read-out: Enzyme Inhibitory Activity (IC50, nM) WT
T1 construct: Kinases domain of EGFR^L858R/T790M and EGFR^WT were expressed by using the Bac-to-Bac™ baculovirusexpression system; made in house
T1 sequence (P00533 712-979 limits assumed): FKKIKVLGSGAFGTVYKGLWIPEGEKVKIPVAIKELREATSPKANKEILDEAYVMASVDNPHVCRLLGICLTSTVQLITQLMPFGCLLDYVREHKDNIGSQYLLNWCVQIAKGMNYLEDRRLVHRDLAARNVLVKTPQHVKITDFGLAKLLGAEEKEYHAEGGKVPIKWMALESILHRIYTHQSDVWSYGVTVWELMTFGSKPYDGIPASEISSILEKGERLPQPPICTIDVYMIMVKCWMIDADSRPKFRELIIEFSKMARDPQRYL
Procedure: In vitro antiproliferation activities of the compounds were examined through using the sulforhodamine B (SRB) colourimetric assay.
(§3) The enzymatic activity assay was evaluated by using the well-established ELISA-based assay. […] The detailed experiment was performed according to the published literature.

[4] = molecular target: T2, EGFR^L858R/T790M (Homo sapiens, UniProt P00533, L858R/T790M); experiment: ELISA-based EGFR-TK enzymatic activity assay (dual mutant); format: biochemical; details: for IC50: ELISA-based EGFR-TK assay, mean ± SD, at least three determinations, read-out: Enzyme Inhibitory Activity (IC50, nM) L858R/T790M; for Enzyme Selectivity WT:DM: ratio IC50 EGFR^WT : EGFR^L858R/T790M
T2 construct: Kinases domain of EGFR^L858R/T790M and EGFR^WT were expressed by using the Bac-to-Bac™ baculovirusexpression system; made in house
T2 sequence (P00533 712-979 T790M/L858R limits assumed): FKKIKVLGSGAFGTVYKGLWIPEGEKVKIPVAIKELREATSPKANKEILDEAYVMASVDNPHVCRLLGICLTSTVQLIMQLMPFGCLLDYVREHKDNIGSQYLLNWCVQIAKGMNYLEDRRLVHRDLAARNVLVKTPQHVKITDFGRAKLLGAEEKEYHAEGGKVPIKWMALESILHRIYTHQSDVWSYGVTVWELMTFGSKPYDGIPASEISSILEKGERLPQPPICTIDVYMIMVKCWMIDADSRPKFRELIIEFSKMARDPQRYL
Procedure: as §3

[5] = tested on: phosphorylation of EGFR^L858R/T790M, AKT and ERK in H1975 cells; experiment: Western blot analysis of EGFR and downstream signaling phosphorylation, H1975; format: cell-based; details: 2 h incubation, EGF 50 ng/mL 10 min
Procedure: (§4) Cells were starved in serum-free medium for 24 h before incubation of indicated concentrations of compounds 20a and 8 (positive control) and harvested after stimulation by EGF (50 ng/mL) for 10 min. Phosphorylation of EGFR and downstream signaling substrates was examined by Western Blot analysis. Blot source data is provided in Supplementary Fig. S1.
(§5) Western blot analysis was performed with standard procedures. Briefly, H1975 and A431 cell lines were seeded in six-well plates, starved in serum-free medium for 24 h, followed by incubation for 2 h in the presence of different concentrations of compounds 20a and 8 (as positive control). Cells were stimulated by the addition of EGF (50 ng/mL, R&D Systems, US) for 10 min, then washed with PBS and lysed in SDS lysis buffer. Antibodies against p-EGFR (Y1068; #3777 S), EGFR (#4267 S), p-ERK (T202/Y204; #4370 L), ERK (#4695 S), p-AKT (Ser473), AKT and Tubulin were used (Cell Signaling Technologies, Cambridge, MA).

[6] = tested on: activation of EGFR^WT in A431 cells; experiment: Western blot analysis of EGFR phosphorylation, A431; format: cell-based
Procedure: as §4, §5

[7] = tested on: H1975 xenograft driven by EGFR^L858R/T790M; experiment: In vivo antitumor efficacy, H1975 NSCLC xenograft mouse model; design: species or system nude mice; details: 14 days; for tumor growth inhibition (TGI): 50 mg/kg orally once per day, final day vs vehicle, P < 0.05
Procedure: H1975 cells were implanted as described in Methods. […] H1975 xenograft mouse model tumor volumes (A) and body weights (B) were recorded every two or three days. All values represent mean ± SEM.
All experimental procedures involving animals were performed in accordance with the ethical guidelines from Shanghai Laboratory Animal Public Service Center and Animal Ethics Committee of the East China University of Science and Technology. The whole experimental protocol was also approved by the Animal Ethics Committee of the East China University of Science and Technology. All 4–6 weeks old nude mice were purchased from Shanghai Slac Laboratory Animal Co. Ltd (The license of experimental animal: SCXK (shanghai) 2012–0002). The mice were maintained under the 12 hour light/dark cycles condition in the specific pathogen free (SPF) cleanroom with fresh air (more than 50%), appropriate temperature (22–26 °C) and humidness (40–60%). All materials and containers were disinfected and sterilized before use. Nude mice, aged 4–6 weeks, were inoculated subcutaneously into the right flank with H1975 NSCLC cells (approximately 2 × 10^6 cells/mouse). When the tumor size reached a volume of ~200−400 mm^3, animals were randomly assigned into control and treated groups (n = 3/group). […] The sizes of tumor volume (V) were measured every two or three days by using vernier caliper, and were calculated with the formula V = (L × W^2)/2, where L and W stands for length and width, respectively.

[8] = molecular target: T2, EGFR^L858R/T790M; design: method as in PMID 27396610; details: previously reported; cited from earlier work

| SMILES | IC50 [1] | IC50 [2] | IC50 [3] | IC50 [4] | Enzyme Selectivity WT:DM [4] | Cellular Selectivity A431:H1975 [1] | concentration inhibiting ERK phosphorylation [5] | concentration inhibiting phosphorylation of AKT [5] | concentration inhibiting phosphorylation of EGFR^L858R/T790M [5] | concentration at which obvious effect on EGFR activation appears [6] | tumor growth inhibition (TGI) [7] | effect on body weight / tolerability ([7]; 50 mg/kg/day orally) | selectivity EGFR^L858R/T790M kinase over EGFR^WT kinase [8] |
| --- | --- | --- | --- | --- | --- | --- | --- | --- | --- | --- | --- | --- | --- |
| C=CC(=O)Nc1cccc(N2C(=O)OC(C)c3cnc(Nc4ccc(N5CCN(C)CC5)cc4OC)nc32)c1 (centres unmarked) [16a, N-(3-(7-((2-Methoxy-4-(4-methylpiperazin-1-yl)phenyl)amino)-4-methyl-2-oxo-2H-pyrimido[4,5-d][1,3]oxazin-1(4H)-yl)phenyl)acrylamide] | 400 ± 257 nM | 821 ± 162 nM | 38 nM | 5.4 nM | 4–7 fold and 7 fold | 2.1 fold | – | – | – | – | – | – | – |
| C=CC(=O)Nc1cccc(N2C(=O)OC(CC)c3cnc(Nc4ccc(N5CCN(C)CC5)cc4OC)nc32)c1 (centres unmarked) [16b, N-(3-(4-Ethyl-7-((2-methoxy-4-(4-methylpiperazin-1-yl)phenyl)amino)-2-oxo-2H-pyrimido[4,5-d][1,3]oxazin-1(4H)-yl)phenyl)acrylamide] | 200 ± 83 nM | 554 ± 285 nM | 23 ± 10 nM | 6.1 nM | 4–7 fold and 3.8 fold | 2.8 fold | – | – | – | – | – | – | – |
| C=CC(=O)Nc1cccc(N2C(=O)OC(CCC)c3cnc(Nc4ccc(N5CCN(C)CC5)cc4OC)nc32)c1 (centres unmarked) [16c, N-(3-(7-((2-Methoxy-4-(4-methylpiperazin-1-yl)phenyl)amino)-2-oxo-4-propyl-2H-pyrimido[4,5-d][1,3]oxazin-1(4H)-yl)phenyl)acrylamide] | 1340 ± 791 nM | 2110 ± 877 nM | 224 ± 41 nM | 158 ± 27 nM | 1.4 fold | 1.6 fold | – | – | – | – | – | – | – |
| C=CC(=O)Nc1cccc(N2C(=O)OC(C(C)C)c3cnc(Nc4ccc(N5CCN(C)CC5)cc4OC)nc32)c1 (centres unmarked) [16d, N-(3-(7-((2-Methoxy-4-(4-methylpiperazin-1-yl)phenyl)amino)-2-oxo-4-isopropyl-2H-pyrimido[4,5-d][1,3]oxazin-1(4H)-yl)phenyl)acrylamide] | 1110 ± 748 nM | 1160 ± 279 nM | 183 ± 47 nM | 217 ± 86 nM | 0.8 fold | 1.0 fold | – | – | – | – | – | – | – |
| C=CC(=O)Nc1cccc(N2C(=O)OC(C)(C)c3cnc(Nc4ccc(N5CCN(C)CC5)cc4OC)nc32)c1 [20a, N-(3-(7-((2-Methoxy-4-(4-methylpiperazin-1-yl)phenyl)amino)-4,4-dimethyl-2-oxo-2H-pyrimido[4,5-d][1,3]oxazin-1(4H)-yl)phenyl)acrylamide] | 135 nM | 1270 nM | 156 nM | 4.5 nM | ~35 fold | 9.4 fold | 100 nM | 10 nM | 10 nM | 1 µM | 71% | no obvious effect on the body weight | – |
| C=CC(=O)Nc1cccc(-n2c(=O)c(=O)n(C)c3cnc(Nc4ccc(N5CCN(C)CC5)cc4OC)nc32)c1 [compound 9] | – | – | – | – | – | – | – | – | – | – | – | – | 101 fold |

More lines, main results first:

| IC50 [1] | IC50 [2] | IC50 [3] | IC50 [4] | Enzyme Selectivity WT:DM [4] | SMILES | Cellular Selectivity A431:H1975 [1] | concentration inhibiting ERK phosphorylation [5] | concentration inhibiting phosphorylation of AKT [5] | concentration inhibiting phosphorylation of EGFR^L858R/T790M [5] | concentration at which obvious effect on EGFR activation appears [6] | tumor growth inhibition (TGI) [7] | effect on body weight / tolerability ([7]; 50 mg/kg/day orally) | selectivity EGFR^L858R/T790M kinase over EGFR^WT kinase [8] |
| --- | --- | --- | --- | --- | --- | --- | --- | --- | --- | --- | --- | --- | --- |
| 222 ± 84 nM | 1070 ± 241 nM | 24 nM | 7.3 nM | 3.3 fold | C=CC(=O)Nc1cccc(N2C(=O)OCc3cnc(Nc4ccc(N5CCN(C)CC5)cc4OC)nc32)c1 [16e, N-(3-(7-((2-Methoxy-4-(4-methylpiperazin-1-yl)phenyl)amino)-2-oxo-2H-pyrimido[4,5-d][1,3]oxazin-1(4H)-yl)phenyl)acrylamide] | 4.8 fold | – | – | – | – | – | – | – |
| 3710 ± 1370 nM | 7040 ± 455 nM | > 1000 nM | > 1000 nM | – | C=CC(=O)Nc1cccc(N2C(=O)OC(CC)(CC)c3cnc(Nc4ccc(N5CCN(C)CC5)cc4OC)nc32)c1 [20b, N-(3-(4,4-Diethyl-7-((2-methoxy-4-(4-methylpiperazin-1-yl)phenyl)amino)-2-oxo-2H-pyrimido[4,5-d][1,3]oxazin-1(4H)-yl)phenyl)acrylamide] | 1.9 fold | – | – | – | – | – | – | – |
| 9390 ± 1740 nM | 6400 ± 349 nM | > 1000 nM | > 1000 nM | – | C=CC(=O)Nc1cccc(N2C(=O)OC(CCC)(CCC)c3cnc(Nc4ccc(N5CCN(C)CC5)cc4OC)nc32)c1 [20c, N-(3-(7-((2-Methoxy-4-(4-methylpiperazin-1-yl)phenyl)amino)-2-oxo-4,4-dipropyl-2H-pyrimido[4,5-d][1,3]oxazin-1(4H)-yl)phenyl)acrylamide] | 0.7 fold | – | – | – | – | – | – | – |
| 73 ± 21 nM | 1120 ± 117 nM | – | – | – | C=CC(=O)Nc1cccc(Nc2nc(Nc3ccc(N4CCN(C(C)=O)CC4)cc3OC)ncc2C(F)(F)F)c1 [compound 7, CO-1686, reference compound] | – | – | – | – | – | 72% | – | – |
